Measured values taken from patent US10351561B2, “Pyrazolo[3,4-b]pyridines and imidazo[1,5-b]pyridazines as PDE1 inhibitors” (H. Lundbeck A/S, priority 2016, dated 2019).
Like-named read-outs stand apart in the source and are kept apart here.

Legend:
Format in all cases: biochemical
Conditions in all cases: 15 nM tritium labelled cAMP, 1 hr at room temperature, SPA beads
PDE1A = PDE1A (Homo sapiens, UniProt P54750); test: PDE1 inhibition assay (PDE1A), SPA with tritium labelled cAMP
Description: (§1) PDE1A, PDE1B and PDE1C assays were performed as follows: the assays were performed in 60 μL samples containing a fixed amount of the PDE1 enzyme (sufficient to convert 20-25% of the cyclic nucleotide substrate), a buffer (50 mM HEPES (4-(2-hydroxyethyl)-1-piperazineethanesulfonic acid) pH 7.6; 10 mM MgCl2; 0.02% Tween20), 0.1 mg/ml BSA (bovine serum albumin), 15 nM tritium labelled cAMP and varying amounts of inhibitors. Reactions were initiated by addition of the cyclic nucleotide substrate, and reactions were allowed to proceed for 1 hr at room temperature before being terminated through mixing with 20 μL (0.2 mg) yttrium silicate SPA beads (PerkinElmer). The beads were allowed to settle for 1 hr in the dark before the plates were counted in a Wallac 1450 Microbeta counter. The measured signals were converted to activity relative to an uninhibited control (100%) and IC50 values were calculated using XIFit (model 205, IDBS).

PDE1B = PDE1B (Homo sapiens, UniProt Q01064); test: PDE1 inhibition assay (PDE1B), SPA with tritium labelled cAMP
Chain of PDE1B (Q01064 whole entry): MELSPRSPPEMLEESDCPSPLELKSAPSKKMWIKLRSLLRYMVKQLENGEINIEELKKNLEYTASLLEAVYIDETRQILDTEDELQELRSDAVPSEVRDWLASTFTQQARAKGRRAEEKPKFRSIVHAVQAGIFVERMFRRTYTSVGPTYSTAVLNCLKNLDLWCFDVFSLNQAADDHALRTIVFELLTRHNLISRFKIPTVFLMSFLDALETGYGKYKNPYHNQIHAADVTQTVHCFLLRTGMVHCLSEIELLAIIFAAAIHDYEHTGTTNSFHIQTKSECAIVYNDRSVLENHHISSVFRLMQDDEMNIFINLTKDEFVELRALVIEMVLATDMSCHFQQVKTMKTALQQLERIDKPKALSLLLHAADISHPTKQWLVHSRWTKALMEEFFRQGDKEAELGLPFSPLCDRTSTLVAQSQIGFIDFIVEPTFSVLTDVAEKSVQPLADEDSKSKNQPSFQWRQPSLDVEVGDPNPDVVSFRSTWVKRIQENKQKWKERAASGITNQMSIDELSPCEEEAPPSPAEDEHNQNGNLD
Description: Reactions were initiated by addition of the cyclic nucleotide substrate, and reactions were allowed to proceed for 1 hr at room temperature before being terminated through mixing with 20 μL (0.2 mg) yttrium silicate SPA beads (PerkinElmer).

PDE1C = PDE1C (Homo sapiens, UniProt Q14123); test: PDE1 inhibition assay (PDE1C), SPA with tritium labelled cAMP
Chain of PDE1C (Q14123 whole entry): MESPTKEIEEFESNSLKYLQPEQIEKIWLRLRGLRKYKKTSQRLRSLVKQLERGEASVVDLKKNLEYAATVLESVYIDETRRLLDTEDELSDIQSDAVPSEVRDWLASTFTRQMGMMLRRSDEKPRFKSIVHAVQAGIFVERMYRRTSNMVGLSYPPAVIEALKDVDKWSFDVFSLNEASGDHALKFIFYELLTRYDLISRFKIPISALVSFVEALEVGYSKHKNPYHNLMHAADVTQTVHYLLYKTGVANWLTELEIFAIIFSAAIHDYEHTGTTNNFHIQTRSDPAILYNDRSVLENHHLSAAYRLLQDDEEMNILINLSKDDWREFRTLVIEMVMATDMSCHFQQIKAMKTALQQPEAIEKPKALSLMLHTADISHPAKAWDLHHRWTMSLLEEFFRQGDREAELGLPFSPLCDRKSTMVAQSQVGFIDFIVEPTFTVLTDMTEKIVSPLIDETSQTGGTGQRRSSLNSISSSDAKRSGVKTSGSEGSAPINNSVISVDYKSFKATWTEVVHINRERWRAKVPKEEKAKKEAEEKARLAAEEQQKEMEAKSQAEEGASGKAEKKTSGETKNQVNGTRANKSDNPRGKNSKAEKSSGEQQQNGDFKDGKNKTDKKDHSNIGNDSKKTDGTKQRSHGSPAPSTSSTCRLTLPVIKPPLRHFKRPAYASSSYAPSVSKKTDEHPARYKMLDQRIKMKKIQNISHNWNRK
Description: as §1

Chain of PDE1A (P54750 whole entry): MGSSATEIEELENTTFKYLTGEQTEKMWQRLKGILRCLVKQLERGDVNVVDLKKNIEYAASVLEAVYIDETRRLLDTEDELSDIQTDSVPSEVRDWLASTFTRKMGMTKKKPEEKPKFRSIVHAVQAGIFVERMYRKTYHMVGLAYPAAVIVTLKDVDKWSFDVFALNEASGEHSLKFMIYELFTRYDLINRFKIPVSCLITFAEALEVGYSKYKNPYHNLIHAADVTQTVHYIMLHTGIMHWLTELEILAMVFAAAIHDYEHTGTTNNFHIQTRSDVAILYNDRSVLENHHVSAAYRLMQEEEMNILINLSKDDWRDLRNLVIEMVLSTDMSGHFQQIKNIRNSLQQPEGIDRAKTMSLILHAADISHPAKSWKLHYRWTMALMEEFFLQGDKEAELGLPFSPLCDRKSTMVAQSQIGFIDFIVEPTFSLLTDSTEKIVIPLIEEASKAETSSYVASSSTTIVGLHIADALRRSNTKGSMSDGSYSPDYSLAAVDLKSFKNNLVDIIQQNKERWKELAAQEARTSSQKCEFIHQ

IC50 (PDE1A) [µM]	IC50 (PDE1B; read-out: PDE1B, IC50) [nM]	IC50 (PDE1C) [µM]	Structure (SMILES)	IC50 (PDE1B; PDE1B, IC50 (nM)) [nM]
0.0033	1	0.007	CCCOc1ncccc1-c1cc(NCc2cnn(C)c2)c2c(C(C)C)nc(C)n2n1 [Example 71, 5-isopropyl-7-methyl-N-[(1-methylpyrazol-4-yl)methyl]-2-(2-propoxy-3-pyridyl)imidazo[1,5-b]pyridazin-4-amine]	
0.032	4.6	0.046	Cc1ncsc1-c1cc(NCc2ncn(C)n2)c2c(C(C)C)nn(C)c2n1 [Example 61, 3-isopropyl-1-methyl-N-((1-methyl-1H-1,2,4-triazol-3-yl)methyl)-6-(4-methylthiazol-5-yl)-1H-pyrazolo[3,4-b]pyridin-4-amine]	
0.0036	0.35	0.004	CCOc1ncccc1-c1cc(NCc2noc(C)n2)c2c(C(C)C)nc(C)n2n1 [Example 12, 2-(2-ethoxy-3-pyridyl)-5-isopropyl-7-methyl-N-[(5-methyl-1,2,4-oxadiazol-3-yl)methyl]imidazo[1,5-b]pyridazin-4-amine]	
0.03	4.3	0.029	CCOc1ncccc1-c1cc(NCc2coc(C)n2)c2c(C(C)C)nc(C)n2n1 [Example 9, 2-(2-ethoxy-3-pyridyl)-5-isopropyl-7-methyl-N-[(2-methyloxazol-4-yl)methyl]imidazo[1,5-b]pyridazin-4-amine]	
0.035	28	0.019	CCOc1ncccc1-c1cc(NCc2cccc3nccn23)c2c(C(C)C)nc(C)n2n1 [Example 79, 2-(2-ethoxy-3-pyridyl)-N-(imidazo[1,2-a]pyridin-5-ylmethyl)-5-isopropyl-7-methyl-imidazo[1,5-b]pyridazin-4-amine]	
0.2	25	0.18	CCOc1ncccc1-c1cc(NCc2nccc(C)n2)c2c(C(C)C)nn(C)c2n1 [Example 35, 6-(2-ethoxy-3-pyridyl)-3-isopropyl-1-methyl-N-[(4-methylpyrimidin-2-yl)methyl]pyrazolo[3,4-b]pyridin-4-amine]	
0.074	15	0.072	CCOc1ncccc1-c1cc(NCc2cccnc2C(F)(F)F)c2c(C(C)C)nc(C)n2n1 [Example 80, 2-(2-ethoxy-3-pyridyl)-5-isopropyl-7-methyl-N-[[2-(trifluoromethyl)-3-pyridyl]methyl]imidazo[1,5-b]pyridazin-4-amine]	
0.089	17	0.11	CCOc1ncccc1-c1cc(NCc2ncc(F)cn2)c2c(C(C)C)nc(C)n2n1 [Example 76, 2-(2-ethoxy-3-pyridyl)-N-[(5-fluoropyrimidin-2-yl)methyl]-5-isopropyl-7-methyl-imidazo[1,5-b]pyridazin-4-amine]	
0.014	1.8	0.013	CCOc1ncccc1-c1cc(NCc2ccn(C)n2)c2c(C(C)C)nc(C)n2n1 [Example 24, 2-(2-ethoxy-3-pyridyl)-5-isopropyl-7-methyl-N-[(1-methylpyrazol-3-yl)methyl]imidazo[1,5-b]pyridazin-4-amine]	
0.061	5.5	0.039	CCOc1ncccc1-c1cc(NCc2cccc3cncn23)c2c(C(C)C)nc(C)n2n1 [Example 78, 2-(2-ethoxy-3-pyridyl)-N-(imidazo[1,5-a]pyridin-5-ylmethyl)-5-isopropyl-7-methyl-imidazo[1,5-b]pyridazin-4-amine]	
0.014	4.4	0.013	CCOc1ncccc1-c1cc(NCc2cnc(C)s2)c2c(C(C)C)nn(C)c2n1 [Example 28, 6-(2-ethoxy-3-pyridyl)-3-isopropyl-1-methyl-N-[(2-methylthiazol-5-yl)methyl]pyrazolo[3,4-b]pyridin-4-amine]	
0.048	8.8	0.074	Cc1csc(-c2cc(NCc3ncn(C)n3)c3c(C(C)C)nn(C)c3n2)n1 [Example 60, 3-isopropyl-1-methyl-6-(4-methylthiazol-2-yl)-N-[(1-methyl-1,2,4-triazol-3-yl)methyl]pyrazolo[3,4-b]pyridin-4-amine]	
0.083	21	0.036	CC(C)c1nn(C)c2nc(-c3ccccc3)cc(NCc3ncn(C)n3)c12 [Example 63, 3-isopropyl-1-methyl-N-[(1-methyl-1,2,4-triazol-3-yl)methyl]-6-phenyl-pyrazolo[3,4-b]pyridin-4-amine]	
0.13	30	0.045	COc1ncccc1-c1cc(NCc2ncn(C)n2)c2c(C(C)C)nn(C)c2n1 [Example 55, 3-isopropyl-6-(2-methoxy-3-pyridyl)-1-methyl-N-[(1-methyl-1,2,4-triazol-3-yl)methyl]pyrazolo[3,4-b]pyridin-4-amine]	
0.002	0.28	0.0026	CCOc1ncccc1-c1cc(NCc2ncn(C)n2)c2c(C(C)C)nc(C)n2n1 [Example 11, 2-(2-ethoxy-3-pyridyl)-5-isopropyl-7-methyl-N-[(1-methyl-1,2,4-triazol-3-yl)methyl]imidazo[1,5-b]pyridazin-4-amine]	
0.18	33	0.18	CCOc1ncccc1-c1cc(NCc2cccnc2C(F)(F)F)c2c(C(C)C)nn(C)c2n1 [Example 38, 6-(2-ethoxy-3-pyridyl)-3-isopropyl-1-methyl-N-[[2-(trifluoromethyl)-3-pyridyl]methyl]pyrazolo[3,4-b]pyridin-4-amine]	
0.05	4	0.077	CCOc1ncccc1-c1cc(NCc2ncccn2)c2c(C(C)C)nn(C)c2n1 [Example 36, 6-(2-ethoxy-3-pyridyl)-3-isopropyl-1-methyl-N-(pyrimidin-2-ylmethyl)pyrazolo[3,4-b]pyridin-4-amine]	
0.0096	1.8	0.0044	CCOc1ncccc1-c1cc(NCc2ccnc(OC)c2)c2c(C(C)CC)nc(C)n2n1 (single isomer, unassigned; (-)) [Example 54, (−)-2-(2-ethoxy-3-pyridyl)-N-[(2-methoxy-4-pyridyl)methyl]-7-methyl-5-[1-methylpropyl]imidazo[1,5-b]pyridazin-4-amine]	
0.0054	0.77	0.0047	CCOc1ncccc1-c1cc(NCc2nnn(C)n2)c2c(C(C)C)nc(C)n2n1 [Example 23, 2-(2-ethoxy-3-pyridyl)-5-isopropyl-7-methyl-N-[(2-methyltetrazol-5-yl)methyl]imidazo[1,5-b]pyridazin-4-amine]	
0.027	3.7	0.039	CCOc1nnccc1-c1cc(NCc2ncn(C)n2)c2c(C(C)C)nn(C)c2n1 [Example 66, 6-(3-ethoxypyridazin-4-yl)-3-isopropyl-1-methyl-N-[(1-methyl-1,2,4-triazol-3-yl)methyl]pyrazolo[3,4-b]pyridin-4-amine]	
0.053	10	0.06	CCOc1ncccc1-c1cc(NCc2cnc(C)o2)c2c(C(C)C)nn(C)c2n1 [Example 27, 6-(2-ethoxy-3-pyridyl)-3-isopropyl-1-methyl-N-[(2-methyloxazol-5-yl)methyl]pyrazolo[3,4-b]pyridin-4-amine]	
0.0089	1.1	0.019	CCOc1ncccc1-c1cc(NCc2noc(C)n2)c2c(C(C)C)nn(C)c2n1 [Example 5, 6-(2-ethoxy-3-pyridyl)-3-isopropyl-1-methyl-N-[(5-methyl-1,2,4-oxadiazol-3-yl)methyl]pyrazolo[3,4-b]pyridin-4-amine]	
0.016	6.3	0.018	CCOc1ncccc1-c1cc(NCc2cncc(OC)c2)c2c(C(C)C)nn(C)c2n1 [Example 25, 6-(2-ethoxy-3-pyridyl)-3-isopropyl-N-[(5-methoxy-3-pyridyl)methyl]-1-methyl-pyrazolo[3,4-b]pyridin-4-amine]	
0.0041	0.31	0.0027	CCOc1ncccc1-c1cc(NCc2cc(C)[nH]n2)c2c(C(C)C)nc(C)n2n1 [Example 13, 2-(2-ethoxy-3-pyridyl)-5-isopropyl-7-methyl-N-[(5-methyl-1H-pyrazol-3-yl)methyl]imidazo[1,5-b]pyridazin-4-amine]	
0.0061	1.5	0.0057	CCOc1ncccc1-c1cc(NCc2cnc(C)s2)c2c(C(C)C)nc(C)n2n1 [Example 17, 2-(2-ethoxy-3-pyridyl)-5-isopropyl-7-methyl-N-[(2-methylthiazol-5-yl)methyl]imidazo[1,5-b]pyridazin-4-amine]	

Structure (SMILES)	IC50 (PDE1A) [µM]	IC50 (PDE1B; read-out: PDE1B, IC50) [nM]	IC50 (PDE1C) [µM]	IC50 (PDE1B; PDE1B, IC50 (nM)) [nM]
CCOc1ncccc1-c1cc(NCc2cnn(C)n2)c2c(C(C)C)nn(C)c2n1 [Example 26, 6-(2-ethoxypyridin-3-yl)-3-isopropyl-1-methyl-N-((2-methyl-2H-1,2,3-triazol-4-yl)methyl)-1H-pyrazolo[3,4-b]pyridin-4-amine]	0.11		0.075	18
